From the supplement of paper PMC11451515

Assays:
Details in all cases: 48 h
P12-Ichikawa [1] = test: cell viability relative to DMSO control; higher = less cytotoxic
In short: (§1)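 Library compounds in DMSO were pin-dosed into 1536-well plates (5 μl) holding NOMO1 or SEM (500 cells/well) or P12-Ichikawa (1000 cells/well) leukemia cells, across an 11-point threefold series of 47 μM to 0.79 nM. Each cell line had been adapted for at least four passages in each medium. CellTiter-Glo One luminescence was read after 48 h at 37°C. Viability is the per-plate percentage relative to DMSO wells, with cell-free wells as background.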

SEM cells [2] = test: as above
In short: as §1

NOMO1 [3] = test: as above
In short: as §1

P12-Ichikawa [4] = test: AUC of viability dose-response curve (% viability x log10 dose units); higher = less sensitive
In short: (§2)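 Leukemia cells adapted to each medium were seeded in 1536-well plates (500 or 1000 cells/well) and given library compounds in DMSO for 48 h at 37°C. The 11 threefold doses spanned 47 μM to 0.79 nM, and CellTiter-Glo One luminescence was normalised per plate to DMSO and cell-free wells before four-parameter log-logistic fitting on log10 dose. Area under the curve was integrated with the trapezoidal rule, scaling curves above full viability and removing curves that failed quality control.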

NOMO1 [5] = test: as above
In short: as §2

SEM cells [6] = test: as above
In short: as §2

O=C\1N(N\C=C1[N]2C=CN=N2)C3=NC=NC(=C3)N4CCOCC4
cell viability [%]
Details | NOMO1 [3] | P12-Ichikawa [1] | SEM cells [2]
HPLM + 10% dialyzed FBS, 0.000781 µM | 81.9 | 78.4 | 58.1
HPLM + 10% dialyzed FBS, 0.00234 µM | 84.5 | 81.7 | 74.2
HPLM + 10% dialyzed FBS, 0.00702 µM | 82 | 76.7 | 66.2
HPLM + 10% dialyzed FBS, 0.0211 µM | 83.9 | 82.8 | 69.5
HPLM + 10% dialyzed FBS, 0.0632 µM | 25.7 | 56.6 | 56
HPLM + 10% dialyzed FBS, 0.19 µM | 25.8 | 32.5 | 46.9
HPLM + 10% dialyzed FBS, 0.569 µM | 26.3 | 18.6 | 20.1
HPLM + 10% dialyzed FBS, 1.71 µM | 23.8 | 20.6 | 36.9
HPLM + 10% dialyzed FBS, 5.12 µM | 28.3 | 19.2 | 21.7
HPLM + 10% dialyzed FBS, 15.4 µM | 28.4 | 15.9 | 15.8
HPLM + 10% dialyzed FBS, 46.1 µM | 26.6 | 8.11 | 12.1
RPMI 5 mM glucose + 10% FBS, 0.000781 µM | 71.2 | 68.7 | 56.6
RPMI 5 mM glucose + 10% FBS, 0.00234 µM | 83.9 | 82.9 | 102
RPMI 5 mM glucose + 10% FBS, 0.00702 µM | 82.7 | 76.4 | 108
RPMI 5 mM glucose + 10% FBS, 0.0211 µM | 87.8 | 81 | 95.5
RPMI 5 mM glucose + 10% FBS, 0.0632 µM | 71 | 74.8 | 46.8
RPMI 5 mM glucose + 10% FBS, 0.19 µM | 16.8 | 46.8 | 28.6
RPMI 5 mM glucose + 10% FBS, 0.569 µM | 12.8 | 13.4 | 13.6
RPMI 5 mM glucose + 10% FBS, 1.71 µM | 14.9 | 30.9 | 13.3
RPMI 5 mM glucose + 10% FBS, 5.12 µM | 15.6 | 16.8 | 19.2
RPMI 5 mM glucose + 10% FBS, 15.4 µM | 14.2 | 15.2 | 14.5
RPMI 5 mM glucose + 10% FBS, 46.1 µM | 16.5 | 11.9 | 16.8
RPMI 5 mM glucose + 10% dialyzed FBS, 0.000781 µM | 70.9 | 74.2 | 52.3
RPMI 5 mM glucose + 10% dialyzed FBS, 0.00234 µM | 79.4 | 83.1 | 77.4
RPMI 5 mM glucose + 10% dialyzed FBS, 0.00702 µM | 81.5 | 78.1 | 74.1
RPMI 5 mM glucose + 10% dialyzed FBS, 0.0211 µM | 88.9 | 78.6 | 69.3
RPMI 5 mM glucose + 10% dialyzed FBS, 0.0632 µM | 72.9 | 72.2 | 66.5
RPMI 5 mM glucose + 10% dialyzed FBS, 0.19 µM | 29.9 | 47.2 | 42.8
RPMI 5 mM glucose + 10% dialyzed FBS, 0.569 µM | 14.4 | 34.4 | 17.3
RPMI 5 mM glucose + 10% dialyzed FBS, 1.71 µM | 19.6 | 38.9 | 32.8
RPMI 5 mM glucose + 10% dialyzed FBS, 5.12 µM | 18.6 | 20.8 | 19.5
RPMI 5 mM glucose + 10% dialyzed FBS, 15.4 µM | 19.4 | 26.8 | 19.9
RPMI 5 mM glucose + 10% dialyzed FBS, 46.1 µM | 18.8 | 17 | 16.7

AUC of viability dose-response curve
Details | HPLM + 10% dialyzed FBS | RPMI 5 mM glucose + 10% FBS | RPMI 5 mM glucose + 10% dialyzed FBS
NOMO1 [5] | 221 | 210 | 222
P12-Ichikawa [4] | 211 | 225 | 248

Cc1cc2c(cc1C1(c3ccc(C(=O)O)cn3)CC1)C(C)(C)CCC2(C)C
AUC of viability dose-response curve
Details | NOMO1 [5] | P12-Ichikawa [4] | SEM cells [6]
HPLM + 10% dialyzed FBS | 371 | 433 | 458
RPMI 5 mM glucose + 10% FBS | 429 | 435 | 418
RPMI 5 mM glucose + 10% dialyzed FBS | 417 | 429 | 407
